These results are taken from US20250304571A1, “BIOLOGICALLY ACTIVE COMPOUNDS AND METHODS THEREOF” (Suzhou Keen Therapeutics Co., Ltd., priority 2022, published 2025).

What all share (assay type): cell-based
Test [1] relates to KP4 (pancreatic ductal adenocarcinoma) cells. The experiment in a line: Cell viability (CellTiter Glo) assay, inhibition of KP4 cell proliferation. As to conditions: Homo sapiens, read-out: IC50, inhibition of KP4 cell proliferation.
Test [2] deals with 786-O (renal cell carcinoma) cells. As to the kind of experiment: Cell viability (CellTiter Glo) assay, inhibition of 786-O cell proliferation. To be noted: Homo sapiens, read-out: IC50, inhibition of 786-O cell proliferation. On the technique in general: ATP-based viability assays read luminescence as a measure of living cells.
The test system of test [3] is 786-O cells. As to the kind of experiment: Anti-proliferation activity in 786-O cells in the presence of a ferroptosis inhibitor (Ferrostatin-1 or Liproxstatin-1). To be noted: Homo sapiens, 786-0, 72 h, no ferroptosis inhibitor, read-out: IC50, No Ferroptosis Inhibitor (Table 5). The procedure:
In one assessment, cells (KP4, 786-0 and HT-1080) were seeded (700 cells/well, 1000 cells/well or 3000 cells/well) in 384-well or 96-well plates and incubated at 37° C./5% CO2 for 22-24 hours. A series of 8 different concentrations of compound stocks were created by 5-fold serial dilution in DMSO. These compounds were further diluted in culture media and were then added to cells (final concentrations: 100 μM, 20 μM, 4 μM, 0.8 μM, 0.16 μM, […].). After 72 hours of incubation, 30 μL of CellTiter Glo reagent (Promega) was added to each well and luminescence was measured after 10 minutes using SpectraMax M5/M5e (Molecular Devices). Luminescence from cells treated with DMSO alone was set as background and % of inhibition was calculated as follows: […]
Anti-proliferation activity of various compounds was also tested in the presence of an ferroptosis inhibitor, Ferrostatin-1 (2 μM) or Liproxstatin-1 (2 μM). Certain results are provided in Table 4 and Table 5 as examples. “A” indicates an IC50≤100 nM; “B” indicates an IC50 of >100 nM and ≤500 nM; “C” indicates an IC50>500 nM and ≤5 μM; and “D” indicates an IC50>5 μM.

Setting [4] is: KP-4, KP4 cells, 72 hours, CellTiter Glo.
Where [5] appears, read: 786-0, 786-O cells, 72 hours, CellTiter Glo.

Structures are written as SMILES. Read-outs that look alike come from different tables or passages of the source.

Consider `CCCC[C@H]1Cc2cc(OC)ccc2[C@H](c2ccc(F)cc2)N1C(=O)COC(=N)N(C)C` [Compound A1], for which the IC50 in test [1] (setting [4]) was 100 to 500 nM.

`CCCC[C@H]1Cc2cc(OC)ccc2[C@H](c2ccc(F)cc2)N1C(=O)COC(=N)N1CCN(C)C(=O)C1` [Compound A2]: the figures for the IC50 in test [2] (setting [5]) and in test [1] (setting [4]) were 500 to 5000 nM and greater than 5000 nM, respectively.

Turning to `CN(C)C(=N)OCc1ncc2ccn(-c3ccc(Oc4ccccc4)cc3)c2n1` [Compound D1], in test [1] (setting [4]), the IC50 lay within 100 to 500 nM.

`N=C(OCc1nc(Nc2ccc(Oc3ccccc3)cc2)c2cc[nH]c2n1)N1CCOCC1` [Compound D4]: the IC50 in test [2] (setting [5]) lay within 100 to 500 nM; in test [1] (setting [4]), 500 to 5000 nM.

Consider `N=C(OCc1nc(Nc2ccc(Oc3ccccc3)cc2)c2cc[nH]c2n1)N1CCCCC1` [Compound D5], for which the IC50 in test [2] (setting [5]) and in test [1] (setting [4]) was 100 to 500 nM in each case.

In the case of `CN1CCN(C(=N)OCc2nc(Nc3ccc(Oc4ccccc4)cc3)c3cc[nH]c3n2)CC1=O` [Compound D7], the IC50 in test [2] (setting [5]) and in test [1] (setting [4]) was 500 to 5000 nM in each case.

For `N=C(OCc1nc(Nc2ccc(Oc3ccccc3)cc2)c2cc[nH]c2n1)N1CCCC(F)(F)C1` [Compound D8], the IC50 was in the range of 100 to 500 nM in test [2] (setting [5]) and 500 to 5000 nM in test [1] (setting [4]).

Take `CN(C)C(=N)OCc1nc(Nc2ccc(Oc3ccccc3)cc2)c2cn[nH]c2n1` [Compound D10]: the IC50 in test [1] (setting [4]) lay within 500 to 5000 nM.

On to `CN(C)C(=N)OCc1nc(N)c2c(n1)N(c1ccc(Oc3ccccc3)cc1)CC2(C)C` [Compound E1], for which the IC50 in test [2] (786-0, 72 h) was less than 100 nM; in test [3], less than 100 nM.

In the case of `C[C@@H]1CN(c2ncc(N3C(=O)C4(CCCC4)c4c(N)nc(COC(=N)N5CCC[C@@H]5C(F)(F)F)nc43)cn2)C[C@H](C)O1` [Compound E87, (4′-amino-7′-(2-((2S,6R)-2,6-dimethylmorpholino)pyrimidin-5-yl)-6′-oxo-6′,7′-dihydrospiro[cyclopentane-1,5′-pyrrolo[2,3-d]pyrimidin]-2′-yl)methyl (R)-2-(trifluoromethyl)pyrrolidine-1-carbimidate], the IC50 in test [2] (setting [5]) and in test [3] was less than 100 nM in each case.

With `CNc1nc(COC(=N)N2CCC[C@@H]2C(F)(F)F)nc2c1C1(CCCC1)C(=O)N2c1cnc(N2C[C@@H](C)O[C@@H](C)C2)nc1` [Compound E88, (7′-{2-[(2R,6S)-2,6-dimethylmorpholin-4-yl]pyrimidin-5-yl}-4′-(methylamino)-6′-oxo-6′,7′-dihydrospiro[cyclopentane-1,5′-pyrrolo[2,3-d]pyrimidin]-2′-yl)methyl (2R)-2-(trifluoromethyl)pyrrolidine-1-carboximidate], the IC50 in test [2] (setting [5]) and in test [3] was less than 100 nM each time.

Take `N=C(OCc1nc(N)c2c(n1)N(c1cnc(N3C4CCC3COC4)nc1)C(=O)C21CCCC1)N1CCC[C@@H]1C(F)(F)F` [Compound E93]: the IC50 in test [2] (setting [5]) and in test [3] was less than 100 nM each time.

Consider `CNc1nc(COC(=N)N2CCC[C@@H]2C(F)(F)F)nc2c1C1(CCCC1)C(=O)N2c1cnc(N2C3CCC2COC3)nc1` [Compound E94], for which the IC50 in test [2] (setting [5]) and in test [3] was less than 100 nM each time.

In the case of `CNc1nc(COC(=N)N2CCOCC2C(F)(F)F)nc2c1C1(CCCC1)C(=O)N2c1cnc(N2C[C@@H](C)O[C@@H](C)C2)nc1` (stereo partly drawn) [Compound E97], the IC50 in test [2] (setting [5]) and in test [3] was 100 to 500 nM each time.

On to `CNc1nc(COC(=N)N2CCC[C@@H]2C(F)(F)F)nc2c1C1(CCCC1)C(=O)N2c1cnc(C2CCOCC2)nc1` [Compound E99], for which the IC50 in test [2] (setting [5]) and in test [3] was 500 to 5000 nM each time.

Regarding `N=C(OCc1nc(N)c2c(n1)N(c1cnc(C3CCOCC3)nc1)C(=O)C21CCCC1)N1CCC[C@@H]1C(F)(F)F` [Compound E100, (4′-amino-6′-oxo-7′-(2-(tetrahydro-2H-pyran-4-yl)pyrimidin-5-yl)-6′,7′-dihydrospiro[cyclopentane-1,5′-pyrrolo[2,3-d]pyrimidin]-2′-yl)methyl (R)-2-(trifluoromethyl)pyrrolidine-1-carbimidate], the IC50 in test [2] (setting [5]) and in test [3] was 100 to 500 nM in each case.

Consider `CC(C)Oc1ccc(Nc2nc(N)nc(COC(=N)N(C)C)n2)cc1` [Compound F1], for which the IC50 in test [1] (setting [4]) was in the range of 500 to 5000 nM.

As to `N=C(OCc1nc(N)nc(Nc2ccc(Oc3ccccc3)cc2)n1)N1CCCCC1` [Compound F4, (4-amino-6-((4-phenoxyphenyl)amino)-1,3,5-triazin-2-yl)methyl piperidine-1-carbimidate], the IC50 in test [1] (setting [4]) was less than 100 nM.

On to `CN(C)C(=N)OCc1nc(N)nc(Nc2ccc3ccccc3c2)n1` [Compound F5], for which the IC50 in test [2] (setting [5]) and in test [1] (setting [4]) was 100 to 500 nM throughout.

`CN1CCN(C(=N)OCc2nc(N)nc(Nc3ccc(Oc4ccccc4)cc3)n2)CC1` [Compound F7]: the IC50 in test [2] (setting [5]) and in test [1] (setting [4]) was 100 to 500 nM each time.

`N=C(OCc1nc(N)nc(Nc2ccc(Oc3ccccc3)cc2)n1)N1CCCCC1C(F)(F)F` (stereo not drawn) [Compound F12]: the IC50 in test [2] (setting [5]) and in test [3] was less than 100 nM each time.

For the compound `C#CCOc1cccc(Oc2ccc(Nc3nc(N)nc(COC(=N)N4CCC(F)(F)CC4)n3)cc2)c1` [Compound F21], the IC50 in test [2] (setting [5]) and in test [3] was less than 100 nM each time.

Consider `Nc1nc(CO/C(=N\C2CCCCC2)NC2CCCCC2)nc(Nc2ccc(Oc3ccccc3)cc2)n1` [Compound F23], for which the IC50 was 100 to 500 nM in test [2] (786-0, 72 h) and 500 to 5000 nM in test [1] (KP-4, 72 h).

Turning to `CC(C)/N=C(/NC(C)C)OCc1nc(N)nc(Nc2ccc(Oc3ccccc3)cc2)n1` [Compound F24], the IC50 in test [2] (setting [5]) lay in the range of 100 to 500 nM; in test [1] (setting [4]), 500 to 5000 nM.

Take `N=C(N)OCc1nc(N)nc(Nc2ccc(Oc3ccccc3)cc2)n1` [Compound F26]: in test [1] (KP-4, 72 h), the IC50 was greater than 5000 nM.

As to `N=C(OCc1nc(N)nc(Nc2ccc(Oc3ccccc3)cc2)n1)N1CCS(=O)(=O)CC1` [Compound F27], the IC50 in test [1] (setting [4]) lay within 100 to 500 nM.

Regarding `C[C@@H]1CN(C(=N)OCc2nc(N)nc(Nc3ccc(Oc4ccccc4)cc3)n2)C[C@H](C)N1C(=O)OC(C)(C)C` [Compound F32], in test [1] (setting [4]), the IC50 was less than 100 nM.

In the case of `CN1CCN(C(=N)OCc2nc(N)nc(Nc3ccc(Oc4ccccc4)cc3)n2)CC1=O` [Compound F33], in test [1] (setting [4]), the IC50 fell in the range of 100 to 500 nM.

For `CN(C)C(=N)OCc1nccc(Nc2ccc(Oc3ccccc3)cc2)n1` [Compound F35], the IC50 was 500 to 5000 nM in test [2] (setting [5]) and 100 to 500 nM in test [1] (setting [4]).

`CN(C)C(=N)OCc1nc(N)cc(Nc2ccc(Oc3ccccc3)cc2)n1` [Compound F36]: in test [1] (KP-4, 72 h), the IC50 lay in the range of 500 to 5000 nM.

Regarding `CN(C)C(=N)OCc1nccc(N2CCCCC2c2ccc(Oc3ccccc3)cc2)n1` (stereo not drawn) [Compound F38], in test [1] (setting [4]), the IC50 is greater than 5000 nM.

Regarding `CCN(CC(F)(F)F)C(=N)OCc1nccc(Nc2ccc(Oc3ccccc3)cc2)n1` [Compound F40], in test [2] (setting [5]), the IC50 is 100 to 500 nM.

Consider `CCN(C(=N)OCc1nc(N)nc(Nc2ccc(Oc3ccccc3)cc2)n1)c1ccncc1` [Compound F41], for which the IC50 in test [2] (setting [5]) is less than 100 nM.

Regarding `CCN(C(=N)OCc1nc(N)nc(Nc2ccc(Oc3ccccc3)cc2)n1)c1ccccn1` [Compound F42], in test [2] (setting [5]), the IC50 is less than 100 nM.

In the case of `N=C(OCc1nc(N)nc(Nc2ccc(Oc3ccccc3)cc2)n1)N1CCCCO1` [Compound F43], the IC50 in test [2] (786-0, 72 h) was in the range of 100 to 500 nM.

As for `N=C(OCc1nc(N)nc(Nc2ccc(Oc3ccccc3)cc2)n1)N1CCCO1` [Compound F44], the IC50 in test [2] (setting [5]) fell in the range of 100 to 500 nM.

As to `CCN(CC(F)(F)F)C(=N)OCc1nc(N)nc(Nc2ccc(Oc3ccccc3)cc2)n1` [Compound F45], in test [2] (setting [5]), the IC50 is less than 100 nM.

As for `C#CCOc1cccc(Oc2ccc(Nc3nc(N)nc(COC(=N)N4CCCCC4C(F)(F)F)n3)cc2)c1` (stereo not drawn) [Compound F46], the IC50 in test [2] (setting [5]) is less than 100 nM.

Take `C#CCOc1cccc(Oc2ccc(Nc3nc(N)nc(COC(=N)N(CC)c4ccccn4)n3)cc2)c1` [Compound F47]: in test [2] (setting [5]), the IC50 is less than 100 nM.

`CCN(CC(F)(F)F)C(=N)OCc1cc(Nc2ccc(Oc3ccccc3)cc2)cnn1` [Compound F48]: the IC50 in test [2] (setting [5]) lay in the range of 500 to 5000 nM.

Regarding `CCN(CC(F)(F)F)C(=N)OCc1nccc(Nc2ccc(N3CCOCC3)nc2)n1` [Compound F49], the IC50 in test [2] (setting [5]) was in the range of 500 to 5000 nM.

As for `CCN(CC(F)(F)F)C(=N)OCc1ncc(C#N)c(Nc2ccc(Oc3ccccc3)cc2)n1` [Compound F50], in test [2] (setting [5]), the IC50 was in the range of 500 to 5000 nM.

Regarding `N=C(OCc1nc(N)nc(Nc2ccc(Oc3ccccc3)cc2)n1)N(CC(F)(F)F)C1CCOCC1` [Compound F51], the IC50 in test [2] (setting [5]) is less than 100 nM.

As to `Nc1nc(COc2nc(=O)[nH]c(=O)[nH]2)nc(Nc2ccc(Oc3ccccc3)cc2)n1` [Compound F53], the IC50 in test [2] (setting [5]) was greater than 5000 nM.

For the compound `CCN(CC(F)(F)F)C(=N)OCc1ncc(C#N)c(Nc2ccc(Oc3ccccc3)cc2)c1F` [Compound F54], the IC50 in test [2] (setting [5]) was 500 to 5000 nM.

As for `N=C(OCc1nc(N)nc(Nc2ccc(N3CCOCC3)cc2)n1)N1CCC[C@@H]1C(F)(F)F` [Compound F55, (4-amino-6-((4-morpholinophenyl)amino)-1,3,5-triazin-2-yl) methyl(R)-2-(trifluoromethyl) pyrrolidine-1-carbimidate], in test [2] (setting [5]), the IC50 is 100 to 500 nM.
